The values that follow come from patent publication US9833497B2, “Human originated EGF domain proteins and use of the same” (CHENGDU SOURCEBIO LIMITED-LIABILITY COMPANY, priority 2013, dated 2017).

What all share (format): cell-based
In one experiment the test system is E. coli DH5α. Put plainly: Antibacterial activity: MIC and growth curve against E. coli DH5α in 96-well plate. The note with it: minimal inhibitory concentration against E. coli DH5α; 96-well plate, 5×10^5 CFU/mL, 37° C., judged after 8 h. The gist of the method: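 MIC taken as lowest protein level with no bacterial growth, tracked by A600 every 30 min during 37 °C, 175 rpm culture. Two-fold protein series 50-12.5 μg/mL final, triplicate wells, against 5×10^5 CFU/mL of LB-washed mid-log cells.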

The test system of the next experiment is E. coli BL21. As to the kind of experiment: MIC against Gram-negative bacteria: E. coli BL21. The following applies: 5×10^5 CFU/mL. The gist of the method: (§1)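 First, colonies from LB agar were grown in LB at 37° C, 185 rpm, to McFarland turbidity 0.5, then centrifuged and resuspended in fresh LB. Next, wells received 5×10^5 CFU/mL bacteria plus two-fold serially diluted EGF domain protein (triplicate). Finally, plates were shaken at 37° C and the no-growth concentration taken as MIC.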

A further experiment relates to Pseudomonas aeruginosa. As to the kind of experiment: MIC against Gram-negative bacteria: Pseudomonas aeruginosa. The note with it: 5×10^5 CFU/mL. The gist of the method: as §1
The next experiment has as its system Klebsiella pneumonia. Put plainly: MIC against Gram-negative bacteria: Klebsiella pneumonia. The note with it: 5×10^5 CFU/mL. The gist of the method: as §1
Another experiment relates to Enterobacter cloacae. Put plainly: MIC against Gram-negative bacteria: Enterobacter cloacae. The note with it: 5×10^5 CFU/mL. The procedure, abridged: as §1
The next experiment has as its system Aeromonas hydrophila. Put plainly: MIC against Gram-negative bacteria: Aeromonas hydrophila. The following applies: 5×10^5 CFU/mL. The gist of the method:
as §1

In the next experiment the test system is Citrobacter diversus. As to the kind of experiment: MIC against Gram-negative bacteria: Citrobacter diversus. The note with it: 5×10^5 CFU/mL. The gist of the method:
as §1

For the next experiment, the system named is Moraxella catarrhalis. As to the kind of experiment: MIC against Gram-negative bacteria: Moraxella catarrhalis. The following applies: 5×10^5 CFU/mL. The gist of the method: as §1
Another experiment relates to Proteus mirabilis. As to the kind of experiment: MIC against Gram-negative bacteria: Proteus mirabilis. The following applies: 5×10^5 CFU/mL. The procedure, abridged:
as §1

A further experiment concerns Proteus vulgaris. As to the kind of experiment: MIC against Gram-negative bacteria: Proteus vulgaris. The following applies: 5×10^5 CFU/mL. The procedure, abridged:
as §1

Another experiment has as its system Serratia marcescens. Put plainly: MIC against Gram-negative bacteria: Serratia marcescens. The following applies: 5×10^5 CFU/mL. The gist of the method:
as §1

Setting [1] is: Pseudomonas aeruginosa, 96-well plate, 37° C., 10 h.
Where [2] appears, read: Klebsiella pneumonia, 96-well plate, 37° C., 10 h.
[3] abbreviates: Enterobacter cloacae, 96-well plate, 37° C., 10 h.
The mark [4] stands for this setting: Aeromonas hydrophila, 96-well plate, 37° C., 10 h.
[5] abbreviates: Citrobacter diversus, 96-well plate, 37° C., 10 h.
[6] abbreviates: Moraxella catarrhalis, 96-well plate, 37° C., 10 h.
The mark [7] stands for this setting: Proteus mirabilis, 96-well plate, 37° C., 10 h.
Where [8] appears, read: Proteus vulgaris, 96-well plate, 37° C., 10 h.
The mark [9] stands for this setting: Serratia marcescens, 96-well plate, 37° C., 10 h.
Where [10] appears, read: 10 h cultivation at 37° C., two-fold serial dilution.

The term MIC denotes the smallest concentration in the dilution series that meets the test's criterion for growth inhibition.

Consider “PRT1244 (CGSTCPTCVQGSCDTVTGDCVCSAGYWGPSCN; listed as Homo sapiens)”, for which the MIC with E. coli DH5α is 50 µg/mL. Also, the “MIC against E. coli BL21” value in the experiment on E. coli BL21 (96-well plate, 37° C., 10 h) is 12.5 µg/mL. For the same substance, the “MIC against P. aeruginosa” value with Pseudomonas aeruginosa (setting [1]) was determined as 50 µg/mL. The “MIC against K. pneumonia” value in the experiment on Klebsiella pneumonia (setting [2]) is 12.5 µg/mL. Also, in the experiment with Enterobacter cloacae (setting [3]), the “MIC against E. cloacae” value was found to be 12.5 µg/mL. For the same substance, the “MIC against A. hydrophila” value against Aeromonas hydrophila (setting [4]) is 50 µg/mL. Moreover, the “MIC against C. diversus” value against Citrobacter diversus (setting [5]) is 25 µg/mL. Also, the “MIC against M. catarrhalis” value in the experiment on Moraxella catarrhalis (setting [6]) was 12.5 µg/mL. In addition, the “MIC against P. mirabilis” value in the experiment on Proteus mirabilis (setting [7]) is 25 µg/mL. For the same substance, in the experiment with Proteus vulgaris (setting [8]), the “MIC against P. vulgaris” value was 50 µg/mL. Further, in the experiment with Serratia marcescens (setting [9]), the “MIC against S. marcescens” value amounted to 12.5 µg/mL.

As to “PRT1316 (ELPVCQELRCPQNTQCSAEAPSCRCLPGYTQQGSE; listed as Homo sapiens)”, in the experiment with E. coli DH5α, the MIC was 50 µg/mL. Further, in the experiment with E. coli BL21 (96-well plate, 37° C., 10 h), the “MIC against E. coli BL21” value was 12.5 µg/mL. In addition, the “MIC against P. aeruginosa” value against Pseudomonas aeruginosa (setting [1]) was found to be 50 µg/mL. Besides, the “MIC against K. pneumonia” value in the experiment with Klebsiella pneumonia (setting [2]) is 25 µg/mL. The “MIC against E. cloacae” value against Enterobacter cloacae (setting [3]) turned out to be 12.5 µg/mL. For the same substance, the “MIC against A. hydrophila” value with Aeromonas hydrophila (setting [4]) is 50 µg/mL. Moreover, the “MIC against C. diversus” value in the experiment on Citrobacter diversus (setting [5]) worked out at 12.5 µg/mL. Also, the “MIC against M. catarrhalis” value against Moraxella catarrhalis (setting [6]) is 50 µg/mL. Moreover, in the experiment with Proteus mirabilis (setting [7]), the “MIC against P. mirabilis” value was found to be 12.5 µg/mL. Also, in the experiment on Proteus vulgaris (setting [8]), the “MIC against P. vulgaris” value is 50 µg/mL. Besides, the “MIC against S. marcescens” value against Serratia marcescens (setting [9]) came to 12.5 µg/mL.

Take “PRT84 (EAGRCVPGVCRNGGTCTDAPNGGFRCQCPAGGAFEGPRCE; listed as Homo sapiens)”: the MIC with E. coli DH5α came to 12.5 µg/mL. The “MIC (μg/mL) E. coli BL21” value with E. coli BL21 (96-well plate, 37° C., 10 h) was determined as 25 µg/mL. The “MIC (μg/mL) P. aeruginosa” value in the experiment on Pseudomonas aeruginosa (setting [1]) worked out at 12.5 µg/mL. Further, the “MIC (μg/mL) K. pneumonia” value with Klebsiella pneumonia (setting [2]) worked out at 25 µg/mL. In the experiment with Enterobacter cloacae (setting [3]), the “MIC (μg/mL) E. cloacae” value was 12.5 µg/mL. In addition, the “MIC (μg/mL) A. hydrophila” value in the experiment with Aeromonas hydrophila (setting [4]) stood at 25 µg/mL. Moreover, the “MIC (μg/mL) C. diversus” value in the experiment with Citrobacter diversus (setting [5]) amounted to 12.5 µg/mL. In addition, the “MIC (μg/mL) M. catarrhalis” value with Moraxella catarrhalis (setting [6]) stood at 25 µg/mL. Moreover, the “MIC (μg/mL) P. mirabilis” value against Proteus mirabilis (setting [7]) came out at 12.5 µg/mL. The “MIC (μg/mL) P. vulgaris” value in the experiment on Proteus vulgaris (setting [8]) was 25 µg/mL. Also, the “MIC (μg/mL) S. marcescens” value with Serratia marcescens (setting [9]) stood at 12.5 µg/mL.

In the case of “PRT1204 (DIDECGTGRHSCANDTICFNLDGGYDCRCPHGKNCT; listed as Homo sapiens)”, in the experiment on E. coli DH5α, the MIC turned out to be 100 µg/mL. The “MIC against E. coli BL21” value against E. coli BL21 (96-well plate, 37° C., 10 h) turned out to be 25 µg/mL. Also, the “MIC against P. aeruginosa” value in the experiment on Pseudomonas aeruginosa (setting [1]) stood at 50 µg/mL. Also, the “MIC against K. pneumonia” value with Klebsiella pneumonia (setting [2]) was 25 µg/mL. Besides, in the experiment on Enterobacter cloacae (setting [3]), the “MIC against E. cloacae” value was found to be 12.5 µg/mL. The “MIC against A. hydrophila” value with Aeromonas hydrophila (setting [4]) was 50 µg/mL. Moreover, the “MIC against C. diversus” value in the experiment on Citrobacter diversus (setting [5]) came out at 25 µg/mL. The “MIC against M. catarrhalis” value against Moraxella catarrhalis (setting [6]) amounted to 25 µg/mL. The “MIC against P. mirabilis” value with Proteus mirabilis (setting [7]) is 12.5 µg/mL. For the same substance, the “MIC against P. vulgaris” value in the experiment with Proteus vulgaris (setting [8]) was determined as 50 µg/mL. For the same substance, in the experiment on Serratia marcescens (setting [9]), the “MIC against S. marcescens” value came to 25 µg/mL.

Substance “PRT1146 (SIDNCAEPELNSVICLNGGICVDGPGHTFDCRCLPGFSGQFCE; listed as Homo sapiens)” came in with an MIC against E. coli DH5α of 50 µg/mL. Further, the “MIC E. coli BL21” value in the experiment with E. coli BL21 (setting [10]) was 25 µg/mL. In the experiment with Pseudomonas aeruginosa (setting [10]), the “MIC P. aeruginosa” value worked out at 12.5 µg/mL. In addition, the “MIC K. pneumonia” value against Klebsiella pneumonia (setting [10]) was 25 µg/mL. The “MIC E. cloacae” value in the experiment on Enterobacter cloacae (setting [10]) worked out at 50 µg/mL. Moreover, the “MIC A. hydrophila” value in the experiment on Aeromonas hydrophila (setting [10]) worked out at 12.5 µg/mL. Also, the “MIC C. diversus” value with Citrobacter diversus (setting [10]) worked out at 25 µg/mL. For the same substance, the “MIC M. catarrhalis” value against Moraxella catarrhalis (setting [10]) came to 50 µg/mL. For the same substance, the “MIC P. mirabilis” value with Proteus mirabilis (setting [10]) came to 12.5 µg/mL. The “MIC P. vulgaris” value against Proteus vulgaris (setting [10]) was determined as 50 µg/mL. Further, the “MIC S. marcescens” value with Serratia marcescens (setting [10]) was found to be 12.5 µg/mL.

“PRT188 (HVSDCARNPCAHGGTCHDLENGLMCTCPAGFSGRRCE; listed as Homo sapiens)” registered an MIC in the experiment on E. coli DH5α of 12.5 µg/mL. The “MIC (μg/mL) E. coli BL21” value against E. coli BL21 (10 h cultivation at 37° C.) was 12.5 µg/mL. Besides, in the experiment with Pseudomonas aeruginosa (P. aeruginosa, 10 h cultivation at 37° C.), the “MIC (μg/mL) P. aeruginosa” value worked out at 50 µg/mL. In the experiment on Klebsiella pneumonia (K. pneumonia, 10 h cultivation at 37° C.), the “MIC (μg/mL) K. pneumonia” value came to 12.5 µg/mL. The “MIC (μg/mL) E. cloacae” value against Enterobacter cloacae (E. cloacae, 10 h cultivation at 37° C.) turned out to be 50 µg/mL. In addition, the “MIC (μg/mL) A. hydrophila” value against Aeromonas hydrophila (A. hydrophila, 10 h cultivation at 37° C.) was 12.5 µg/mL. Also, the “MIC (μg/mL) C. diversus” value with Citrobacter diversus (C. diversus, 10 h cultivation at 37° C.) was found to be 12.5 µg/mL. The “MIC (μg/mL) M. catarrhalis” value against Moraxella catarrhalis (M. catarrhalis, 10 h cultivation at 37° C.) was 25 µg/mL. For the same substance, in the experiment on Proteus mirabilis (P. mirabilis, 10 h cultivation at 37° C.), the “MIC (μg/mL) P. mirabilis” value turned out to be 12.5 µg/mL. In addition, the “MIC (μg/mL) P. vulgaris” value against Proteus vulgaris (P. vulgaris, 10 h cultivation at 37° C.) was determined as 25 µg/mL. Also, the “MIC (μg/mL) S. marcescens” value with Serratia marcescens (S. marcescens, 10 h cultivation at 37° C.) amounted to 12.5 µg/mL.
